# From article PMC6325233, “A Novel Actin Binding Drug with In Vivo Efficacy” (Antimicrobial Agents and Chemotherapy, 2018)
# “Also recorded” adds a separate entry of the source.
# Experiments:
# yeast = settings: cited from earlier work
# From the text: Occidiofungin is a nonribosomally synthesized glycolipopeptide produced by the soil bacterium Burkholderia contaminans MS14 ([21]). It is a cyclic peptide with a base mass of 1,200 Da (Fig. 1) ([21]). Occidiofungin has a wide spectrum of activities against filamentous and nonfilamentous fungi and minimal toxicity in an animal system ([21], [22]).
# [1] = tested on: clinically relevant fungi; test: Spectrum of antifungal activity (summary); format: cell-based
# Procedure: (§1) Occidiofungin was purified from a liquid culture of Burkholderia contaminans MS14 as previously described ([21]). MIC susceptibility testing was performed according to the CLSI M27-A3 and M38-A2 standards for the susceptibility testing of yeasts and filamentous fungi, respectively. S. cerevisiae deletion mutants were obtained from the commercially available BY4741 deletion library (Thermo Scientific).
# Candida krusei 28415 = test: MIC susceptibility testing (fluconazole-resistant strain); format: cell-based; settings: CLSI M27-A3
# Procedure: as §1
# C. albicans = test: Murine model of vulvovaginal candidiasis, efficacy; format: in vivo, BALB/c mice infected with C. albicans
# Procedure: The murine model of vulvovaginal candidiasis has been reported ([59]). A variation of this method was used. Three groups of six mice were used to evaluate two concentrations of occidiofungin (100 μg and 50 μg) and vehicle control (0.3% Noble agar). Briefly, 6- to 8-week-old BALB/c mice were treated subcutaneously with 200 ng per mouse of β-estradiol 17-valerate 3 days prior to inoculation with C. albicans (day −3). A subcutaneous dose of estradiol was administered every 3 days (day 0 [D0] and D3) until the end of the experiment to induce pseudoestrus. Intravaginal inoculations of approximately 20 μl of 2.5 × 10^6 CFU/ml of C. albicans were performed on D0 of the VVC study. On the same day of inoculation (D0), another subcutaneous injection of estradiol was made. A lyophilized powder of occidiofungin containing either 100 μg or 50 μg of occidiofungin was suspended in 20 μl of warm 0.3% Noble agar before the intravaginal inoculations. Drug treatments were performed on D2, D3, and D4 of the study. On day 5 (D5), the vaginal lumen was lavaged with 100 μl of sterile PBS with a 200-µl pipette tip. Serial dilutions and total CFU per vaginal lavage were determined by plating on YPD plates containing 50 μg/ml of chloramphenicol. Body weights, signs of vaginal irritation such as swelling or bleeding, and clinical signs of discomfort (stereotypical stretching behavior) were monitored. Statistical analyses (t tests) were performed to compare the control group to the treated groups and to compare differences between treated groups. All the analyses were 2 sided, with a P value of <0.05 considered statistically significant.
# S. cerevisiae Δbni1 = test: MIC against deletion mutant; format: cell-based; settings: Actin nucleation, Formin
# Procedure: as §1
# S. cerevisiae Δrgl1 = test: MIC against deletion mutant; format: cell-based; settings: Tus1p cofactor
# Procedure: as §1
# S. cerevisiae Δsac6 = test: MIC against deletion mutant; format: cell-based; settings: Actin bundling, Fimbrin
# Procedure: as §1
# S. cerevisiae Δtus1 = test: MIC against deletion mutant; format: cell-based; settings: Rho1p GEF
# Procedure: as §1
# S. cerevisiae Δabp1 = test: MIC against deletion mutant; format: cell-based; settings: ARP2/3 activator
# Procedure: as §1
# S. cerevisiae Δtpm2 = test: MIC against deletion mutant; format: cell-based; settings: Actin filament binding, Tropomyosin
# Procedure: as §1
substance,measurement,setting,value
occidiofungin,impact on growth rate of yeast,yeast; subinhibitory concentrations,little to no impact on the growth rate of yeast
same,induction of apoptosis,yeast; yeast cells at the MIC,rapidly induces apoptosis in yeast cells
same,activity against filamentous fungi,"[1]; Aspergillus, Mucor, Fusarium, Rhizopus, and azole- and terbinafine-resistant Trichophyton",active
same,activity against fluconazole- and caspofungin-resistant Candida,"[1]; Candida albicans, Candida glabrata, Candida parapsilosis resistant to fluconazole and caspofungin",sensitive to occidiofungin
same,activity against caspofungin-resistant strains,[1]; Candida parapsilosis and C. neoformans resistant to caspofungin,susceptible to treatment with occidiofungin
same,activity against C. auris,[1]; strains of C. auris,sensitive to occidiofungin at submicromolar concentrations
same,activity against filamentous and nonfilamentous fungi,[1]; summary of Table S1,low micromolar inhibitory activity; also recorded: activity against filamentous and nonfilamentous fungi at submicromolar concentrations
same,spectrum of activities vs other clinically available antifungals,[1]; summary of Table S1,broader spectrum of activities
same,"MIC, 50% inhibition",Candida krusei 28415; 24 hours,4 µg/mL
same,"MIC, 100% inhibition",Candida krusei 28415; 24 hours,8 µg/mL
same,"MIC, 50% inhibition",Candida krusei 28415; 48 hours,4 µg/mL
same,"MIC, 100% inhibition",Candida krusei 28415; 48 hours,8 µg/mL
same,difference between the two treated groups,"C. albicans; 100 vs 50 µg, P = 0.33",no statistically significant difference between the two treated groups
same,reduction in fungal load,"C. albicans; intravaginal 100 and 50 µg in 0.3% Noble agar, once per day for 3 days, six mice per group, vs vehicle P < 0.001",2 -log
same,efficacious concentration lower than azole-based treatment,C. albicans; vs azole-based treatment methods,10 -fold
same,MIC,S. cerevisiae Δbni1,0.25 µg/mL
same,MIC,S. cerevisiae Δrgl1,0.25 µg/mL
same,MIC,S. cerevisiae Δsac6,0.25 µg/mL
same,MIC,S. cerevisiae Δtus1,0.25 µg/mL
same,MIC,S. cerevisiae Δabp1,0.25 µg/mL
same,MIC,S. cerevisiae Δtpm2,0.25 µg/mL
